Entries after “also recorded” stand apart in the source; their conditions may differ.
Tests used:
[1] = Induction of yawning behavior; conditions: in vivo
[2] = system: Male ddy mice; experiment: Effect on climbing behavior induced by apomorphine (Pharmacological Test 7); assay type: in vivo; set-up: key: sum of 7 scores; each 0 = four legs on floor, 2 = ≥3 legs on rods; conditions: control 9.8 ± 0.7
Procedure: (§1) Effect on climbing behavior induced by apomorphine
Male ddy mice (weighing 20 to 30 g) were used, with 10 mice in each group. Each mouse was placed into a cylindrical cage, 12 cm in diameter and 14 cm in height, made up of vertical rods of 2 mm in diameter spaced apart at a distance of 10 mm in a circular arrangement. The mouse was allowed to stand therein for 2 hours. Physiological saline containing a specified amount of a test compound (and 1 mM of sodium hydrogencarbonate) was subcutaneously given to one group of mice in a volume of 1 ml/10 g. (The same dose of saline only was given to a control group). […] The test was carried out in soundproof compartments.
(§2) 0: All the four legs are on the floor.
(§3) 2: At least three legs are on rods.
The other compounds were tested in the same manner as above. The test was carried out in soundproof compartments. Student's t-test was resorted to for statistical treatment.

[3] = system: Male ICR mice; experiment: Inhibitory effect on hyperlocomotion induced by administration of methylphenidate; assay type: in vivo; conditions: s.c. with methylphenidate 10 mg/kg s.c., measured 1 hour after, 50 with control as 100
Procedure: Inhibitory effect on hyperlocomotion induced by administration of methylphenidate
Male ICR mice (weighing 24 to 30 g) were divided into groups, each including 10 mice. To one group of mice were subcutaneously given 10 mg/kg of methylphenidate and 0.1 ml/10 g of a saline solution of a specified amount of a test compound and 1 mM of sodium hydrogencarbonate. One hour after the administration, the test animals were checked for hyperlocomotion, which was measured with use of a device for measuring locomotion of small animals (wherein the motion of an animal shifts the center of graavity of the device to actuate a microswitch for the measurement of the amount of motion, see Folia Pharmacologica Japonica, 74, 629-639 (1978). For a control group, the same procedure as above was repeated except that the saline solution given was free from any test compound. The concentration of the test compound at which the result achieved by the group of animals was 50, namely, ED50 value, was determined, with the measurement obtained by the control group calculated as 100. The other compounds were tested in the same manner as above.

[4] = system: male Wister rats; experiment: Effect on the fixed ratio (FR20) responding in rats; assay type: in vivo; conditions: s.c., 15 min before 20 min session, dose giving count 50 with control as 100
Procedure: Effect on the fixed ratio responding in rats
The test was conducted according to the method described in Ahlenius S. and Engel J., Eur. J. Pharm., Vol. 15, 187-192 (1971).
Male Wister rats (weighing 240 to 320 g) were placed into Skinner box (product of Bil-Medika Co., Ltd., Japan, adapted to give a feed when a lever within the box is pressed) and made to learn how to take the food. In this test, one feed was given to the rats when the lever was pressed 20 times, i.e., fixed ratio (FR) 20. The rats showing stable FR20 response were divided into groups each including four rats.
Physiological saline (containing 1 mM of sodium hydrogencarbonate) containing a specified amount of a test compound was subcutaneously given to the rats of one group in a volume of 0.1 ml/100 g. (Physiological saline containing the above-mentioned amount of sodium hydrogencarbonate only was given to the control group). Fifteen minutes after the administration, the test animals were placed in the Skinner box, and the number of times the animals took the feed for 20 minutes was counted. The dose at which the count gained by the group of animals was 50, namely, ED50 value, was determined, with the count gained by the control group calculated as 100. The same procedure as above was repeated with use of the other test compounds.

[5] = system: Male ddy mice; experiment: Effect on climbing behavior induced by apomorphine (Pharmacological Test 2); assay type: in vivo; set-up: key to Average: Mean ± S.E. (total of 7 scores), climbing behavior: sum of 7 scores; 0 = all four legs on floor, 2 = ≥3 legs on rods; conditions: for Average: Mean ± S.E. (total of 7 scores), climbing behavior: 30 min before apomorphine 0.75 mg/kg s.c., control 9.8 ± 0.7
Procedure: as §1
Male ddy mice (weighing 20 to 30 g) were used, with 10 mice in each group. Each mouse was placed into a cylindrical cage, 12 cm in diameter and 14 cm in height, made up of vertical rods of 2 mm in diameter spaced apart at a distance of 10 mm in a circular arrangement. The mouse was allowed to stand therein for 2 hours. Peptide A, peptide B, CCK-8 or, as a control, the above-mentioned diluent was subcutaneously given to the animal, and 30 minutes later, 0.75 mg/kg of apomorphine was subcutaneously given. […] The test was carried out in soundproof compartments.
as §2, §3
Student's t-test was resorted to for statistical treatment.

[6] = system: male Wister rats; experiment: Effect on metabolism of amine in the brain; assay type: in vivo
Procedure: Effect on metabolism of amine in the brain
Unfasted male Wister rats (weighing 180 to 220 g) were used. Peptide A or peptide B was subcutaneously given to the animal at a dose of 1 mg/kg, the head was irradiated with microwave 1 hour thereafter, and amine metabolite was extracted from the brain. First, removed tissues were homogenized with 1M formic acid and centrifuged at 20,000×g for 20 minutes, and the supernatant (1 ml) was shaken with 5 ml of ethyl acetate. The 3,4-dihydroxyphenylacetic acid (DOPAC), homovanillic acid (HVA) and 5-hydroxyindoleacetic acid (5-HIAA) in the ethyl acetate layer were analyzed by high-performance liquid chromatography under the following conditions. Chemcosorb, 5-ODS, 20 cm×4.6 mm I.D. was used for a separating column, and a mobile phase (0.1M KH2 PO4 (pH 5.0)-5 mM EDTA-2Na-5% acetonitrile) was passed through the colunn at a flow rate of 1 ml/min. The electrochemical detector was set to an oxidation potential of +0.8 V.

[7] = system: male Wister rats; experiment: Effect on yawning behavior induced by apomorphine; assay type: in vivo
Procedure: Effect on yawning behavior
Male Wister rats (weighing 200 to 300 g) were used, with 10 rats in each group. The rat was placed into a plastics cage (17×24×12 cm) with a floor mat and was then habituated for 30 minutes. Peptide A, peptide B, CCK-8 or the above-mentioned diluent serving as a control was subcutaneously given to the animal. Thirty minutes thereafter, 0.03 mg/kg of apomorphine was subcutaneously given to the animal. The number of yawns induced by apomorphine was counted during a period of 30 minutes following administration of apomorphine. The test was conducted in a soundproof compartment for each animal. Wilcoxon rank-sum test was resorted to for statistical treatment.

[8] = system: test animals; experiment: Induction of catalepsy in test animals; assay type: in vivo

CSCC[C@H](NC(=O)[C@H](Cc1ccc(OS(=O)(=O)O)cc1)NC(=O)[C@@H](N)CC(=O)O)C(=O)NCC(=O)N[C@@H](Cc1c[nH]c2ccccc12)C(=O)N[C@@H](CCSC)C(=O)N[C@@H](CC(=O)O)C(=O)N[C@@H](Cc1ccccc1)C(N)=O [CCK-8, Asp--Tyr(SO3 H)--Met--Gly--Trp--Met--Asp--Phe--NH2, reference compound]
Induction of yawning behavior (thought to be induced by a reduction in the amount of dopamine) [1]: induces no yawning behavior whatsoever
Average: Mean ± S.E. (total of 7 scores), climbing behavior ([2]; 0.01 mg/kg s.c.): 10.2 ± 0.7
Average: Mean ± S.E. (total of 7 scores), climbing behavior ([2]; 0.1 mg/kg s.c.): 11.4 ± 0.6
Average: Mean ± S.E. (total of 7 scores), climbing behavior ([2]; 1.0 mg/kg s.c.): 9.5 ± 1.0
ED50, inhibition of methylphenidate-induced hyperlocomotion [3]: 0.5125 mg/kg
ED50, inhibition of FR20 responding [4]: 0.0221 mg/kg
Average: Mean ± S.E. (total of 7 scores), climbing behavior ([5]; 0.01 mg/kg s.c.): 10.2 ± 0.7
Average: Mean ± S.E. (total of 7 scores), climbing behavior ([5]; 0.1 mg/kg s.c.): 11.4 ± 0.6
Average: Mean ± S.E. (total of 7 scores), climbing behavior ([5]; 1 mg/kg s.c.): 9.5 ± 1.0
Effect on apomorphine-induced climbing behavior (in words) ([5]; mice, s.c.): little or no influence on the climbing behavior; also recorded: does not inhibit this behavior
Acceleration of the metabolism of dopamine in the brain of rats (in words) [6]: does not accelerate the metabolism of dopamine
Number of yawns (average) ([7]; 1 mg/kg s.c., 30 min before apomorphine 0.03 mg/kg s.c., counted 30 min, control 4.5): 4.9
Effect on yawning behavior induced by apomorphine (in words) ([7]; rats, s.c.): not inhibited
Induction of catalepsy (side effect) [8]: induces catalepsy

Source: patent US4517180A, “Peptides, process for preparing the same and psychodepressant compositions containing the same” (Amano Pharmaceutical Co., Ltd, priority 1982, dated 1985)
